Paper PMC4116177, “Rational Modification of Estrogen Receptor by Combination of Computational and Experimental Analysis” (PLoS ONE, 2014)
Substitutions are numbered along the chain they refer to. Blank lines part the entries; values can stand above or below the molecule they belong to.

Key:
M421F-ERα ^LBD = biological target: T1, M421F-ERα ^LBD (Homo sapiens, UniProt P03372, M421F); experiment: PolarScreen competitive binding assay (fluorescence polarization) with M421F mutant
T1 construct: The polypeptide fragment 303-547 of the human ERα has been thus cloned; made in house; host or cells: E. coli Rosetta 2(DE3)pLysS
T1 sequence (P03372 303-547 M421F): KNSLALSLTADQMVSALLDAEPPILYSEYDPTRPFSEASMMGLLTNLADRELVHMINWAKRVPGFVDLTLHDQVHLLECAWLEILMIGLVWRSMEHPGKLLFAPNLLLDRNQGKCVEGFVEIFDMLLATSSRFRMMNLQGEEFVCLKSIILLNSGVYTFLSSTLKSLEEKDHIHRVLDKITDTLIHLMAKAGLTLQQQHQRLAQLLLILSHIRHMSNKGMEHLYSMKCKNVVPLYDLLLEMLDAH
Description: (§1) The PolarScreen assay was used to test the ligand binding affinity of wt-ERα ^LBD and its mutants towards different classes of estrogen disrupting compounds.
(§2) Each compound was tested in a range of 12 concentrations with the ER receptors (Figure 5). The compounds concentrations (X axis) were plotted in a logarithmic scale against the Polarization values (Y axis). The plot of compounds concentrations against Polarization were fitted with a one site competition […] logistic curve (see Materials and Methods for further details).
(§3) To test the binding affinity of the recombinant receptor for EDCs we used the competitive binding assay developed by Life Technologies for ERα, the PolarScreen Estrogen Receptor-α Competitor Green Assay.
(§4) The full length ERα provided with the kit was replaced by our recombinant ERα ^LBD. In short, wt or mutant ERα ^LBD are added to the Fluormone and incubated at 4°C for 45 minutes to form the receptor-Fluormone complex. This complex is then mixed and incubated at 25°C for 2 h with the individual EDCs and the intensity of the fluorescence polarization signal (directly proportional to the amount of Fluormone bound to the protein) measured. The addition of competitors displaces the Fluormone from the ERα ^LBD receptor, resulting in a decreased fluorescence signal. The fluorescence polarization anisotropy signal (P) is read using an Infinite 200 Pro multimode plate reader from Tecan and calculated with the following equation: [drawing 1]
The P data (y) were fitted against the competitor concentrations (x) with a typical one site competition three parameters logistic curve: [drawing 2]
LogIC50 = Log of the concentration of test compound required to reduce the maximum polarization value by 50%. All the resulting IC50 values are obtained by the average of at least four different experiments.

wt-ERα ^LBD = biological target: T2, wt-ERα ^LBD (Homo sapiens, UniProt P03372); experiment: PolarScreen competitive binding assay (fluorescence polarization) with wt-ERα LBD
T2 construct: The polypeptide fragment 303-547 of the human ERα has been thus cloned; made in house; host or cells: E. coli Rosetta 2(DE3)pLysS
T2 sequence (P03372 303-547): T1 sequence (P03372 303-547 M421F) with F119M
Description: as §1, §2, §3
as §4, with “In short, wt or mutant ERα ^LBD are added to the Fluormone and incubated at 4°C for 45 minutes to form the receptor-Fluormone complex.” left out, “1] […]” for “1]”

M421I-ERα ^LBD = biological target: T3, M421I-ERα ^LBD (Homo sapiens, UniProt P03372, M421I); experiment: PolarScreen competitive binding assay (fluorescence polarization) with M421I mutant
T3 construct: The polypeptide fragment 303-547 of the human ERα has been thus cloned; made in house; host or cells: E. coli Rosetta 2(DE3)pLysS
T3 sequence (P03372 303-547 M421I): T1 sequence (P03372 303-547 M421F) with F119I
Description: as §1, §2, §3
as §4, with “In short, wt or mutant ERα ^LBD are added to the Fluormone and incubated at 4°C for 45 minutes to form the receptor-Fluormone complex.” left out, “1] […]” for “1]”

[1] = Thermal unfolding followed by CD spectroscopy at 222 nm; assay type: physicochemical
Description: The thermal stability of the different ERs was assessed by following the protein thermal unfolding between 25 and 90°C with CD spectroscopy (Figures 3D, 3E and 3F). The unfolding process is not reversible: by cooling back the samples to 25°C only around 50% of the original secondary structure of the protein is recovered (data not shown). By fitting the experimental data with a Boltzmann-type equation it was possible to calculate melting temperature (Tm) values of 59.5±1.5°C, 65.8±1.4°C, and 61.5±1.3°C for the wt-ERα ^LBD, M421F-ERα ^LBD, and M421I-ERα ^LBD proteins, respectively.
Circular dichroism spectra were recorded with a J750 Circular dichroism spectrometer from Jasco interfaced with a Peltier temperature control unit with 1 mm path length cuvette. Analysis of the far-UV region (185–260 nm) was used to investigate the secondary structure and the folding of the protein. CD spectra were analyzed with the DichroWeb online software, by means of the CDSSTR program. Thermal denaturation experiments were performed by monitoring the circular dichroism at 222 nm while changing the temperature from 25 to 90°C (1°C/min) and backward. Reference spectra were collected for the buffers in which proteins were dissolved. Denaturation curves were analyzed assuming a two-state unfolding model and melting temperature (Tm) was calculated for every mutant. […]

binds more strongly to M421F-ERα ^LBD than to wt-ERα ^LBD (M421F-ERα ^LBD; from IC50 values, M421F versus wt): approximately 6 times
Molecule: CC(C)(c1ccc(O)cc1)c1ccc(O)cc1 [Bisphenol-A]

Molecule: CCCCCCCCCc1ccc(O)cc1 [4-Nonylphenol]
IC50 (wt-ERα ^LBD): 8 ± 1 µM
IC50 (M421F-ERα ^LBD): 4 ± 2 µM
IC50 of M421F-ERα ^LBD compared to wt-ERα ^LBD (in words) (M421F-ERα ^LBD; M421F versus wt): twice as strong
IC50 (M421I-ERα ^LBD): 60 ± 30 µM

B1: wt-ERα ^LBD: recombinant His6-tagged polypeptide fragment 303-547 (ligand binding domain) of human ERα, wild type (protein, UniProt P03372 303-547, looked up, fragment)
chain: T1 sequence (P03372 303-547 M421F) with F119M
modifications: ligand binding domain His6 tag
melting temperature (Tm) ([1]; CD at 222 nm, 25 to 90°C, Boltzmann-type fit): 59.5±1.5 °C
melting temperature higher than that previously reported for the full-length ERα protein ([1]; versus full-length ERα): about 20 °C
